Data published in patent publication US20250381179A1, “CHROMAN-BASED COMPOUNDS FOR TREATING CANCER” (priority 2024, published 2025).
Like-named read-outs stand apart in the source and are kept apart here.

Legend:
ERa = molecular target: T1, ERa (Homo sapiens, UniProt P03372); assay: ERa degradation in ERa-positive breast cancer cell lines; type: cell-based; details: multiple ERa-positive breast cancer cell lines, such as MCF7
T1 sequence (P03372 1-595): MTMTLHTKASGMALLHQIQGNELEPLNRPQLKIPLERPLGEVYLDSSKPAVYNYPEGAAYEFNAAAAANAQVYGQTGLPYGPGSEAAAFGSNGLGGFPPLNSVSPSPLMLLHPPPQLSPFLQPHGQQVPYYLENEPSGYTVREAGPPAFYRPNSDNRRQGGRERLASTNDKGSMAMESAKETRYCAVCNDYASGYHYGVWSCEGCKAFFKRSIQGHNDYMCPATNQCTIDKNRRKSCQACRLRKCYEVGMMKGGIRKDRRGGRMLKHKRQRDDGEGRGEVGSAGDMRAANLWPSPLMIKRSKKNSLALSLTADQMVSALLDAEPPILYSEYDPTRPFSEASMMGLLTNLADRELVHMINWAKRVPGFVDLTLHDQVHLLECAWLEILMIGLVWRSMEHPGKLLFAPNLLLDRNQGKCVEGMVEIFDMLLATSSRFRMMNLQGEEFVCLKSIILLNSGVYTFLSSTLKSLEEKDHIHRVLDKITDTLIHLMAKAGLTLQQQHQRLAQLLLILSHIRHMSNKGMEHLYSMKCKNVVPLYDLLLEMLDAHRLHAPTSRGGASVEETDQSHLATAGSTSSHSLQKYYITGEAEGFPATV

[1] = Exposure after repeat oral administration in GLP toxicology study, rats; type: in vivo
Source text: There were no marked sex-based differences in exposure, but in the 28-day toxicity study of compound (1-g) in rats, exposures were 1.4 to 1.9-fold higher in female rats compared to males.

CYP1A2 [2] = molecular target: CYP1A2 (Homo sapiens, UniProt P05177); assay: CYP1A2 direct inhibition; type: in vitro ADME; details: highest concentration evaluated (10 μM)
Chain of CYP1A2 (Homo sapiens, UniProt P05177) (P05177 whole entry): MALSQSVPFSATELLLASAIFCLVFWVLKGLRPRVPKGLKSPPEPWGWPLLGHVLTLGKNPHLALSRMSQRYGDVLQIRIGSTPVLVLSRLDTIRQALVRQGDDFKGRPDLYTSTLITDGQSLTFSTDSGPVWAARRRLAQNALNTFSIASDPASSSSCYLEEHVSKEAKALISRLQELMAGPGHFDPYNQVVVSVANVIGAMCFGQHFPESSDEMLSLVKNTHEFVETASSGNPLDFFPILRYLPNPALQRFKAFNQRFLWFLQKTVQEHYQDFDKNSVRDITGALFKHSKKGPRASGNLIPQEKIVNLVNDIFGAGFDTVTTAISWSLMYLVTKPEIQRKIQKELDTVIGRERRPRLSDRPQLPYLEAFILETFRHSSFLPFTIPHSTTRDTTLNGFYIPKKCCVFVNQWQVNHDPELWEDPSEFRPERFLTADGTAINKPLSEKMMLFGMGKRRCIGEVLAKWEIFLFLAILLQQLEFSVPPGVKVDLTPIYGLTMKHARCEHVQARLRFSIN

CYP3A [3] = assay: CYP3A direct inhibition; type: in vitro ADME; details: highest concentration evaluated (10 μM)
CYP1A2 [4] = assay: CYP1A2 induction in hepatocytes (activity, mRNA); type: in vitro ADME; details: for CYP1A2 mRNA expression increase: 1 of 3 hepatocyte donors
[5] = Phase 1 study: plasma pharmacokinetics in patients; type: in vivo, human; details: for conversion to compound (1-h) in patients: plasma PK after oral dosing
Protocol: All patients received compound (1-g) orally. The time of day for administration of compound (1-g) was consistent. Compound (1-g) was taken whole with liquid(s) and with food in the morning. The patient avoided taking other medications at the same time as compound (1-g). When possible, the patient took other medications in the evening or separated by a minimum of 4 hours following compound (1-g) dosing. On scheduled PK collection days (Cycle 1 Day 1, Cycle 1 Day 15, and Day 1 of Cycles 2, 3, 4, and 6) patients were instructed to wait until they arrive at the study center to take their study drug when told. If a patient missed a dose of compound (1-g), the patient was required to take the dose as soon as possible, but not less than 12 hours before the next dose is due. If vomiting occurred after taking the study treatment, the patient was instructed not to retake the dose and record the dose recorded as taken in the dosing diary, noting that the patient vomited and marking the time of vomiting. Patients were instructed to take the next scheduled dose of compound (1-g).
The plasma PK parameters (including AUC(0-∞), AUC(0-τ), Cmax, tmax, and T1/2) of compound (1-g) following oral administration was assessed by analysis of blood samples. During treatment, PK blood samples were taken at approximately the following time points: • Cycle 1 Day 1, and Day 15: pre-dose; at 1, 2, and 4-hour post-dose (±5 min); 6 and 8-hour post-dose (±10 min); and 24 hours post-dose (+1 hour); • Cycle 2, 3, 4, and 6 Day 1: pre-dose only.
Plasma concentrations of compound (1-g) were used to calculate the PK parameters. These parameters were listed by individual patient and summarized by descriptive statistics (means, medians, ranges, standard deviations, and coefficients of variation as appropriate) by cohort.
Compound (1-g) was administered orally to patients once a day at 100, 200, 300 mg, 400 mg, and 600 mg doses.

[6] = rat, in vivo, po
CYP2C9 = CYP2C9 (Homo sapiens, UniProt P11712)
Chain of CYP2C9 (P11712 whole entry): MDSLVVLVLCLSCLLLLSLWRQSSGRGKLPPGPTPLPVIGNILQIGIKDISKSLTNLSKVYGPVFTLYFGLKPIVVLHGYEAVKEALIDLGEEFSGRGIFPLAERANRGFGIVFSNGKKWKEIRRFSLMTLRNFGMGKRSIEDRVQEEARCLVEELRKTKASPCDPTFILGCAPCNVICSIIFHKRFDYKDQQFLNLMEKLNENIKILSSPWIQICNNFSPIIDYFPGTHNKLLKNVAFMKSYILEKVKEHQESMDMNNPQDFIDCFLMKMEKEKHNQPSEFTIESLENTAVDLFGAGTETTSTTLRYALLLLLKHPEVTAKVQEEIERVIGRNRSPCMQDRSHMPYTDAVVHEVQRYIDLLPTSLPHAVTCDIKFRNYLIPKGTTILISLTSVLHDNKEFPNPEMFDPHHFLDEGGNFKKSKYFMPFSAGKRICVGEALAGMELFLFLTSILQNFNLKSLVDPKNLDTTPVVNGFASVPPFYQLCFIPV

CYP2C19 = CYP2C19 (Homo sapiens, UniProt P33261)
Chain of CYP2C19 (P33261 whole entry): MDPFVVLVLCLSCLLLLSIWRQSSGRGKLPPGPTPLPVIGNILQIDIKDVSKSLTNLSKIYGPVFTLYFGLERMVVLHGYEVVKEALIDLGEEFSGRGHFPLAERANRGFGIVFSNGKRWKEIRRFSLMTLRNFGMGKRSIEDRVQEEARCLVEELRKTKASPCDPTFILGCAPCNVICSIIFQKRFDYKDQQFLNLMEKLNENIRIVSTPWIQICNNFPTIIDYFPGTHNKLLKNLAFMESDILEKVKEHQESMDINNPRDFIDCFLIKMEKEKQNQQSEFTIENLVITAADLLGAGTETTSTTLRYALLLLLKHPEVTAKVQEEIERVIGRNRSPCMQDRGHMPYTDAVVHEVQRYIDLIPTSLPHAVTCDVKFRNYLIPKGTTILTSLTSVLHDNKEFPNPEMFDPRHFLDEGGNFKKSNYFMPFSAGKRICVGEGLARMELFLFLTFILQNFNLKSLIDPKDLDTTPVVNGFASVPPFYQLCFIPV

in vivo = details: male, rat, po
CYP3A [7] = assay: in vitro; details: human

## O=C1CC[C@H](N2Cc3cc(N4CCN(CC5CCN(c6ccc([C@@H]7c8ccc(O)cc8OC[C@@H]7c7ccccc7)cc6F)CC5)CC4)ccc3C2=O)C(=O)N1 [compound (1-g), (S)-3-(5-(4-((1-(2-fluoro-4-((3S,4R)-7-hydroxy-3-phenylchroman-4-yl)phenyl)piperidin-4-yl)methyl)piperazin-1-yl)-1-oxoisoindolin-2-yl)piperidine-2,6-dione]
ERa
  ERa degradation: induces rapid ERa degradation
[1]
  accumulation with repeated dosing: No significant accumulation
[1]; repeat oral administration
  exposure (AUC0-24h) versus dose: increased in an approximately dose-dependent manner
CYP1A2 [2]
  CYP1A2 direct inhibition: did not directly inhibit
CYP3A [3]
  CYP3A direct inhibition: did not directly inhibit
CYP1A2 [4]; 0.5 μM (372 ng/mL)
  CYP1A2 mRNA expression increase: 1.4 fold
CYP1A2 [4]; 2 μM
  CYP1A2 mRNA expression increase: 3.1 fold
CYP1A2 [4]; hepatocytes
  CYP1A2 enzyme activity induction: no induction of CYP1A2 enzyme activity was observed
[5]; human, plasma, po, 100 mg, patient plasma, oral (1-g) 100 mg QD, C1D1, n = 3, *median value, read-out: Tmax*
  Tmax: 12.7 h
[5]; human, plasma, po, 100 mg, patient plasma, oral (1-g) 100 mg QD, C1D1, n = 3, mean, read-out: AUC0-24 h
  AUC(0-t): 7570 ng·h/mL
[5]; human, plasma, po, 100 mg, patient plasma, oral (1-g) 100 mg QD, C1D1, n = 3, mean, read-out: Cmax
  Cmax: 432 ng/mL
[5]; human, plasma, po, 100 mg, patient plasma, oral (1-g) 100 mg QD, C1D1, n = 3, mean, read-out: T½ (converted)
  half-life: 20.2 h
[5]; human, plasma, po, 100 mg, patient plasma, oral (1-g) 100 mg QD, C1D15 (steady state), n = 3, mean, read-out: AUC0-24 h
  AUC(0-t): 19500 ng·h/mL
[5]; human, plasma, po, 100 mg, patient plasma, oral (1-g) 100 mg QD, C1D15 (steady state), n = 3, mean, read-out: Cmax
  Cmax: 1010 ng/mL
[5]; human, plasma, po, 100 mg, patient plasma, oral (1-g) 100 mg QD, C1D15, n = 3, *median value, read-out: Tmax*
  Tmax: 6.67 h
[5]; human, plasma, po, 100 mg, patient plasma, oral (1-g) 100 mg QD, C1D15, n = 3, mean, read-out: T½ (converted)
  half-life: 32.1 h
[5]; human, plasma, po, 200 mg, patient plasma, oral (1-g) 200 mg QD, C1D1, n = 12, *median value, read-out: Tmax*
  Tmax: 5.5 h
[5]; human, plasma, po, 200 mg, patient plasma, oral (1-g) 200 mg QD, C1D1, n = 12, mean, read-out: AUC0-24 h
  AUC(0-t): 11200 ng·h/mL
[5]; human, plasma, po, 200 mg, patient plasma, oral (1-g) 200 mg QD, C1D1, n = 12, mean, read-out: Cmax
  Cmax: 630 ng/mL
[5]; human, plasma, po, 200 mg, patient plasma, oral (1-g) 200 mg QD, C1D1, n = 12, mean, read-out: T½ (converted)
  half-life: 38.3 h
[5]; human, plasma, po, 200 mg, patient plasma, oral (1-g) 200 mg QD, C1D15 (steady state), n = 12, mean, read-out: AUC0-24 h
  AUC(0-t): 26000 ng·h/mL
[5]; human, plasma, po, 200 mg, patient plasma, oral (1-g) 200 mg QD, C1D15 (steady state), n = 12, mean, read-out: Cmax
  Cmax: 1340 ng/mL
[5]; human, plasma, po, 200 mg, patient plasma, oral (1-g) 200 mg QD, C1D15, n = 12, *median value, read-out: Tmax*
  Tmax: 4 h
[5]; human, plasma, po, 200 mg, patient plasma, oral (1-g) 200 mg QD, C1D15, n = 12, mean, read-out: T½ (converted)
  half-life: 48.8 h
[5]; human, plasma, po, 300 mg, patient plasma, oral (1-g) 300 mg QD, C1D1, n = 10, *median value, read-out: Tmax*
  Tmax: 5.8 h
[5]; human, plasma, po, 300 mg, patient plasma, oral (1-g) 300 mg QD, C1D1, n = 10, mean, read-out: AUC0-24 h
  AUC(0-t): 16600 ng·h/mL
[5]; human, plasma, po, 300 mg, patient plasma, oral (1-g) 300 mg QD, C1D1, n = 10, mean, read-out: Cmax
  Cmax: 963 ng/mL
[5]; human, plasma, po, 300 mg, patient plasma, oral (1-g) 300 mg QD, C1D1, n = 10, mean, read-out: T½ (converted)
  half-life: 31.2 h
[5]; human, plasma, po, 300 mg, patient plasma, oral (1-g) 300 mg QD, C1D15 (steady state), n = 10, mean, read-out: AUC0-24 h
  AUC(0-t): 41800 ng·h/mL
[5]; human, plasma, po, 300 mg, patient plasma, oral (1-g) 300 mg QD, C1D15 (steady state), n = 10, mean, read-out: Cmax
  Cmax: 2190 ng/mL
[5]; human, plasma, po, 300 mg, patient plasma, oral (1-g) 300 mg QD, C1D15, n = 10, *median value, read-out: Tmax*
  Tmax: 4.8 h
[5]; human, plasma, po, 300 mg, patient plasma, oral (1-g) 300 mg QD, C1D15, n = 10, mean, read-out: T½ (converted)
  half-life: 32.9 h
[5]; human, plasma, po, 400 mg, patient plasma, oral (1-g) 400 mg QD, C1D1, n = 6, *median value, read-out: Tmax*
  Tmax: 6 h
[5]; human, plasma, po, 400 mg, patient plasma, oral (1-g) 400 mg QD, C1D1, n = 6, mean, read-out: AUC0-24 h
  AUC(0-t): 18800 ng·h/mL
[5]; human, plasma, po, 400 mg, patient plasma, oral (1-g) 400 mg QD, C1D1, n = 6, mean, read-out: Cmax
  Cmax: 1070 ng/mL
[5]; human, plasma, po, 400 mg, patient plasma, oral (1-g) 400 mg QD, C1D1, n = 6, mean, read-out: T½ (converted)
  half-life: 30.4 h
[5]; human, plasma, po, 400 mg, patient plasma, oral (1-g) 400 mg QD, C1D15, n = 5, *median value, read-out: Tmax*
  Tmax: 4.4 h
[5]; human, plasma, po, 400 mg, patient plasma, oral (1-g) 400 mg QD, C1D15, n = 5, mean, read-out: AUC0-24 h
  AUC(0-t): 45900 ng·h/mL
[5]; human, plasma, po, 400 mg, patient plasma, oral (1-g) 400 mg QD, C1D15, n = 5, mean, read-out: Cmax
  Cmax: 2360 ng/mL
[5]; human, plasma, po, 400 mg, patient plasma, oral (1-g) 400 mg QD, C1D15, n = 5, mean, read-out: T½ (converted)
  half-life: 44.9 h
[5]; human, plasma, po, 600 mg, patient plasma, oral (1-g) 600 mg QD, C1D1, n = 4, *median value, read-out: Tmax*
  Tmax: 4.5 h
[5]; human, plasma, po, 600 mg, patient plasma, oral (1-g) 600 mg QD, C1D1, n = 4, mean, read-out: AUC0-24 h
  AUC(0-t): 26100 ng·h/mL
[5]; human, plasma, po, 600 mg, patient plasma, oral (1-g) 600 mg QD, C1D1, n = 4, mean, read-out: Cmax
  Cmax: 1390 ng/mL
[5]; human, plasma, po, 600 mg, patient plasma, oral (1-g) 600 mg QD, C1D1, n = 4, mean, read-out: T½ (converted)
  half-life: 40.9 h
[5]; human, plasma, po, 600 mg, patient plasma, oral (1-g) 600 mg QD, C1D15, n = 4, *median value, read-out: Tmax*
  Tmax: 6 h
[5]; human, plasma, po, 600 mg, patient plasma, oral (1-g) 600 mg QD, C1D15, n = 4, mean, read-out: AUC0-24 h
  AUC(0-t): 48600 ng·h/mL
[5]; human, plasma, po, 600 mg, patient plasma, oral (1-g) 600 mg QD, C1D15, n = 4, mean, read-out: Cmax
  Cmax: 2680 ng/mL
[5]; human, plasma, po, 600 mg, patient plasma, oral (1-g) 600 mg QD, C1D15, n = 4, mean, read-out: T½ (converted)
  half-life: 27.6 h
[5]; human, plasma, po, patients, 100-600 mg QD oral, read-out: AUC0-24h, range
  AUC(0-t): 7570 to 48600 ng·h/mL
[5]; human, plasma, po, patients, 100-600 mg QD oral, read-out: Cmax, range
  Cmax: 432 to 2680 ng/mL
[5]; human, plasma, po, patients, 100-600 mg QD oral, read-out: mean effective T1/2 at steady state, range
  half-life: 20.2 to 48.8 h
[5]; human, plasma, po, patients, 100-600 mg QD oral, read-out: median Tmax, range across the dose levels
  Tmax: 4 to 13 h
[5]; patient plasma, oral (1-g) 100 mg QD, C1D15 (steady state), n = 3, mean
  Cmax: 1008.67 ng/mL
[5]; patient plasma, oral (1-g) 200 mg QD, C1D15 (steady state), n = 12, mean
  Cmax: 1341.75 ng/mL
[5]; patients, FIGS. 4A, 4C, 4D
  dose proportionality of pharmacokinetics: dose proportional relationship up to 400 mg but almost plateaued at 400 mg
[5]; patients, preliminary results
  Cmax and AUC0-24h versus dose: dose-dependent increases
[5]
  conversion to compound (1-h) in patients: partially converted to compound (1-h)
[5]; listed as 1-g
  conversion to compound (1-h) in patients: partially metabolized to form compound 1-h
[6]
  presence in mammary gland tissue, ovaries and uterus: quantifiable in mammary gland tissue
  tissue exposure: highest exposures were observed in the large and small intestine with limited exposure to the brain
CYP2C9
  CYP2C9 time-dependent inhibition: without showing time-dependent inhibition
CYP2C19
  CYP2C19 time-dependent inhibition: without showing time-dependent inhibition
In vivo
  NOAEL at 28 day: 270 mg/kg/day
CYP3A [7]
  inhibition at 10 µM: 31.3%
